# In patent publication US10118908B2, “Method for manufacturing furan-2,5-dicarboxylic acid (FDCA) from a solid salt” (PURAC BIOCHEM BV, priority 2015, dated 2018):
# Experiments:
# [1] = Solubility of FDCA in water as a function of magnesium chloride concentration; type: physicochemical; settings: magnesium chloride solutions in water, stirred 24 h at 21.8° C. and 48.8° C., filtrate analysed by HPLC; values only in FIG. 3
# Procedure: Magnesium chloride solutions in water were prepared by dissolving magnesium chloride hexahydrate in water. To each solution (30 g) solid FDCA was added and the mixture was stirred for 24 h at 21.8° C. After stirring a sample was taken and filtered by means of a 0.45 micron filter. The clear filtrate was analysed on FDCA content by means of HPLC. The experiment was repeated at 48.8° C.
# [2] = Saturation concentration of MgFDC solution; type: physicochemical; settings: solution at 20° C., as anhydrate
# Procedure: The HCl was added over a period of about 1 hour and the final pH was 1.5. […] The solid FDCA was filtered off and washed with water. The concentration of 4 wt. % was chosen as it is the saturation concentration at 20° C.
Structure (SMILES),solubility of FDCA [1],saturation concentration [2] [wt. %]
"O=C(O)c1ccc(C(=O)O)o1 [FDCA, furan-2,5-dicarboxylic acid]",depends strongly on temperature and on the concentration of magnesium chloride,
"O=C([O-])c1ccc(C(=O)[O-])o1.[Mg+2] [MgFDC, magnesium furan-2,5-dicarboxylate]",,4
